This experiment addresses Cannabinoid receptor 1 (Mus musculus, UniProt P47746). As to the kind of experiment: Displacement of [3H]CP-55940 from CB1R in C57Bl/6Jhsd mouse cortex membrane incubated for 1 hr by liquid scintillation counter analysis.

Here are results for one molecule from BindingDB's records for PubMed 40258217 (The Hebrew University of Jerusalem).

The Ki is the equilibrium dissociation constant of an inhibitor or competing ligand from its target.

Sequence of Cannabinoid receptor 1 (P47746 whole entry): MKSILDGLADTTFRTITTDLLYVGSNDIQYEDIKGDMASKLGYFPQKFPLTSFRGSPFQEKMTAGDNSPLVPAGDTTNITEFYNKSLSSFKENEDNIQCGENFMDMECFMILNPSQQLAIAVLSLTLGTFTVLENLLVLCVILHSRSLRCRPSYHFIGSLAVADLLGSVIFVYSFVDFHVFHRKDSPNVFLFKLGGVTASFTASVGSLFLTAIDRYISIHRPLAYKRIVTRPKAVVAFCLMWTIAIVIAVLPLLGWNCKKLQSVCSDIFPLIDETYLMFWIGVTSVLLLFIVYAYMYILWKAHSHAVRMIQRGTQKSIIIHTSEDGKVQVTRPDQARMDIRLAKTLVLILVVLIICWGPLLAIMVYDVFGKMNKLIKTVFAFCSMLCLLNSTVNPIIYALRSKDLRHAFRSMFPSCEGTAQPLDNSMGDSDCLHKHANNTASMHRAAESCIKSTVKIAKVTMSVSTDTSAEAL

As for `CCOC(=O)N1CCC(N[C@H]2CCCOc3c2nn(-c2ccccc2Cl)c3-c2ccc(Cl)cc2)CC1`, the Ki worked out at 8.9 nM.
